Square brackets hold non-standard residues; d marks the D form. Peptide text beside a SMILES is read from it. Phe(4-NO2) = N[C@@H](Cc1ccc([N+](=O)[O-])cc1)C(=O)O

The experiment addresses T1, GRF receptors ([^125 I-Tyr^10 ]hGRF(1-44)NH2 binding sites in rat adenopituitary) (Rattus norvegicus, UniProt Q02644).
T1 construct: from tissue; host or cells: rat anterior pituitary homogenate
T1 sequence (Q02644 23-423 isoform Q02644-2 limits assumed): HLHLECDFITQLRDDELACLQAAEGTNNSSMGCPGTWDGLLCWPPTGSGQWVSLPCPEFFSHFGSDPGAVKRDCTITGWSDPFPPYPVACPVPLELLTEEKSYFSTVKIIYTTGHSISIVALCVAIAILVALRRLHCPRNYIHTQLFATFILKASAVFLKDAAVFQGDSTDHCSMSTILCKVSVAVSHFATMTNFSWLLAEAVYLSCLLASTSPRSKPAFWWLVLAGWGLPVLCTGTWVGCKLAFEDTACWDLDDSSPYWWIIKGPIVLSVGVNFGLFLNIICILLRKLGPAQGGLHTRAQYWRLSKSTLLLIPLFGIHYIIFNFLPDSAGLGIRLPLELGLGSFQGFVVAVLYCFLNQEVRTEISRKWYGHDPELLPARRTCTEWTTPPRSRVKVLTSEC
Kind of experiment: Competitive binding assay with [^125 I-Tyr^10 ]hGRF(1-44)NH2 on anterior pituitary homogenates. Particulars: for Relative affinity: ratio IC50 of hGRF(1-29)NH2 /IC50 analogue. As for the experimental part:
The binding of [^125 I-Tyr^10 ]hGRF(1-44)NH2 was performed on anterior pituitary homogenates as previously described (Gaudreau P. et al., J. Biol. Chem., 1992, 35:1864-1869). Briefly, anterior pituitaries (pit.) were dissected out, rinsed and homogenized for 8 sec with a Micro Ultrasonic Cell Disrupter™, in ice-cold 50 mM Tris-HCl buffer, pH 7.4, containing 5 mM MgCl2 and 5 mM EDTA (1 pit./0.5 ml). These homogenates were used immediately. Competition studies were performed using 35-50 pM [^125 I-Tyr^10 ]hGRF(1-44)NH2 as radio-ligand,50 μl of homogenate (70 to 75 μg of protein), and increasing concentrations of Nε-CF-[Lys^31 ]hGRF or other GRF analogues (0-1000 nM) or with 2.4 μM rGRF(1-29)NH2 for determination of non-specific binding, in a total volume of 300 μl of Tris-HCl buffer, pH 7.4, containing 5 mM EDTA, 5 mM MgCl2 and 0.42% BSA. Incubations were carried out at 23° C. for 60 min and stopped by centrifugation (12,000 g, 5 min, at 4° C.). The radioactivity content in the pellet was measured by gamma counting. The affinity of hGRF(1-29)NH2 was tested in each experiment to assess the validity of the assay and determine the relative affinity of the analogues. […] The Hill values indicate that all these peptides bind to the high and low affinity GRF binding sites found in the anterior pituitary.

Take `CC[C@H](C)[C@H](NC(=O)[C@H](C)NC(=O)[C@H](CC(=O)O)NC(=O)[C@H](C)NC(=O)[C@H](Cc1ccc(O)cc1)NC(=S)Nc1ccc(-c2c3ccc(=O)cc-3oc3cc(O)ccc23)c(C(=O)O)c1)C(=O)N[C@@H](Cc1ccccc1)C(=O)N[C@H](C(=O)N[C@@H](CC(N)=O)C(=O)N[C@@H](CO)C(=O)N[C@@H](Cc1ccc(O)cc1)C(=O)N[C@@H](CCCNC(=N)N)C(=O)N[C@@H](CCCCN)C(=O)N[C@H](C(=O)N[C@@H](CC(C)C)C(=O)NCC(=O)N[C@@H](CCC(N)=O)C(=O)N[C@@H](CC(C)C)C(=O)N[C@@H](CO)C(=O)N[C@@H](C)C(=O)N[C@@H](CCCNC(=N)N)C(=O)N[C@@H](CCCCN)C(=O)N[C@@H](CC(C)C)C(=O)N[C@@H](CC(C)C)C(=O)N[C@@H](CCC(N)=O)C(=O)N[C@@H](CC(=O)O)C(=O)N[C@H](C(=O)N[C@@H](CCSC)C(=O)N[C@@H](CO)C(=O)N[C@@H](CCCNC(=N)N)C(N)=O)[C@@H](C)CC)C(C)C)[C@@H](C)O` [[Nα-fluorescein-5-thiocarbamyl]hGRF(1-29)NH2]: for the setting “Table 4”, the Hill coef. is listed as 0.61 ± 0.05 and the Relative affinity stood at 19 ± 11%.

On to `CC[C@H](C)[C@H](NC(=O)[C@H](C)NC(=O)[C@H](CC(=O)O)NC(=O)[C@@H](C)NC(=O)[C@@H](N)Cc1ccc(O)cc1)C(=O)N[C@@H](Cc1ccccc1)C(=O)N[C@H](C(=O)N[C@@H](CC(N)=O)C(=O)N[C@@H](CO)C(=O)N[C@H](Cc1ccc(O)cc1)C(=O)N[C@@H](CCCNC(=N)N)C(=O)N[C@@H](CCCCN)C(=O)N[C@H](C(=O)N[C@@H](CC(C)C)C(=O)NCC(=O)N[C@@H](CCC(N)=O)C(=O)N[C@@H](CC(C)C)C(=O)N[C@@H](CO)C(=O)N[C@@H](C)C(=O)N[C@@H](CCCNC(=N)N)C(=O)N[C@H](CCCCN)C(=O)N[C@@H](CC(C)C)C(=O)N[C@@H](CC(C)C)C(=O)N[C@@H](CCC(N)=O)C(=O)N[C@@H](CC(=O)O)C(=O)N[C@H](C(=O)N[C@@H](CCSC)C(=O)N[C@@H](CO)C(=O)N[C@@H](CCCNC(=N)N)C(N)=O)[C@@H](C)CC)C(C)C)[C@@H](C)O` [D-Ala^2, D-Tyr^10, D-Lys^21], for which, for the setting “Table 11”, the Hill coef. came out at 0.64 ± 0.05 and the Relative affinity is reported as 21 ± 11%. Further, the “biological activity compared to that of native GRF” value (rat adenopituitary) was “preserved or increased”.

In general, IC50 refers to the midpoint of a concentration-inhibition curve. Higher therefore signals lower potency. As for `CC[C@H](C)[C@H](NC(=O)[C@H](C)NC(=O)[C@H](CC(=O)O)NC(=O)[C@H](C)NC(=O)[C@H](Cc1ccc(O)cc1)NC(=S)Nc1ccc2c(c1)C(=O)OC21c2ccc(O)cc2Oc2cc(O)ccc21)C(=O)N[C@@H](Cc1ccccc1)C(=O)N[C@H](C(=O)N[C@@H](CC(N)=O)C(=O)N[C@@H](CO)C(=O)N[C@@H](Cc1ccc(O)cc1)C(=O)N[C@@H](CCCNC(=N)N)C(=O)N[C@@H](CCCCN)C(=O)N[C@H](C(=O)N[C@@H](CC(C)C)C(=O)NCC(=O)N[C@@H](CCC(N)=O)C(=O)N[C@@H](CC(C)C)C(=O)N[C@@H](CO)C(=O)N[C@@H](C)C(=O)N[C@@H](CCCNC(=N)N)C(=O)N[C@@H](CCCCN)C(=O)N[C@@H](CC(C)C)C(=O)N[C@@H](CC(C)C)C(=O)N[C@@H](CCC(N)=O)C(=O)N[C@@H](CC(=O)O)C(=O)N[C@H](C(=O)N[C@@H](CCSC)C(=O)N[C@@H](CO)C(=O)N[C@@H](CCCNC(=N)N)C(=O)N[C@@H](CCC(N)=O)C(=O)N[C@@H](CCC(N)=O)C(=O)NCC(=O)N[C@@H](CCC(=O)O)C(=O)N[C@@H](CO)C(=O)N[C@@H](CC(N)=O)C(=O)N[C@@H](CCC(N)=O)C(=O)N[C@@H](CCC(=O)O)C(=O)N[C@@H](CCCNC(=N)N)C(=O)NCC(=O)N[C@@H](C)C(=O)N[C@@H](CCCNC(=N)N)C(=O)N[C@@H](C)C(=O)N[C@@H](CCCNC(=N)N)C(=O)N[C@@H](CC(C)C)C(N)=O)[C@@H](C)CC)C(C)C)[C@@H](C)O` [[Nα-fluorescein-5-thiocarbamyl]hGRF(1-44)NH2], the “affinity for adenopituitary GRF receptors (in words)” value is reported as “nanomolar affinity”. Further, for the setting “Table 4”, the Hill coef. is on record as 0.63 ± 0.07 and the Relative affinity was found to be 19 ± 5%. The IC50 (Table 4, mean±SD of 2 experiments in triplicate for analogues, mean±SE of 29 experiments for hGRF(1-29)NH2) came out at 14 ± 4 nM.

Take `CC[C@H](C)[C@H](NC(=O)[C@H](C)NC(=O)[C@H](CC(=O)O)NC(=O)[C@H](C)NC(=O)[C@@H](N)Cc1ccc(O)cc1)C(=O)N[C@@H](Cc1ccccc1)C(=O)N[C@H](C(=O)N[C@@H](CC(N)=O)C(=O)N[C@@H](CO)C(=O)N[C@@H](Cc1ccc([N+](=O)[O-])cc1)C(=O)N[C@@H](CCCNC(=N)N)C(=O)N[C@@H](CCCCN)C(=O)N[C@H](C(=O)N[C@@H](CC(C)C)C(=O)NCC(=O)N[C@@H](CCC(N)=O)C(=O)N[C@@H](CC(C)C)C(=O)N[C@@H](CO)C(=O)N[C@@H](C)C(=O)N[C@@H](CCCNC(=N)N)C(=O)N[C@@H](CCCCN)C(=O)N[C@@H](CC(C)C)C(=O)N[C@@H](CC(C)C)C(=O)N[C@@H](CCC(N)=O)C(=O)N[C@@H](CC(=O)O)C(=O)N[C@H](C(=O)N[C@@H](CCSC)C(=O)N[C@@H](CO)C(=O)N[C@@H](CCCNC(=N)N)C(N)=O)[C@@H](C)CC)C(C)C)[C@@H](C)O` [npa^10, [4'-nitro-phenylalanine^10]hGRF(1-29)NH2] (H-YADAIFTNS[Phe(4-NO2)]RKVLGQLSARKLLQDIMSR-NH2): the “IC50 (in words)” value is listed as “low nanomolar range”.

As to “4'-benzoyl-phenylalyl^10 ]hGRF(1-29)NH2 [bpa^10]”, the “IC50 (in words)” value is reported as “low nanomolar range” and the “affinity for adenopituitary GRF receptors (in words)” value is “high affinity”.

As for `CC[C@H](C)[C@H](NC(=O)[C@H](C)NC(=O)[C@H](CC(=O)O)NC(=O)[C@H](C)NC(=O)[C@H](Cc1ccc(O)cc1)NC(=O)[C@@H](N)Cc1ccc([N+](=O)[O-])cc1)C(=O)N[C@@H](Cc1ccccc1)C(=O)N[C@H](C(=O)N[C@@H](CC(N)=O)C(=O)N[C@@H](CO)C(=O)N[C@@H](Cc1ccc(O)cc1)C(=O)N[C@@H](CCCNC(=N)N)C(=O)N[C@@H](CCCCN)C(=O)N[C@H](C(=O)N[C@@H](CC(C)C)C(=O)NCC(=O)N[C@@H](CCC(N)=O)C(=O)N[C@@H](CC(C)C)C(=O)N[C@@H](CO)C(=O)N[C@@H](C)C(=O)N[C@@H](CCCNC(=N)N)C(=O)N[C@@H](CCCCN)C(=O)N[C@@H](CC(C)C)C(=O)N[C@@H](CC(C)C)C(=O)N[C@@H](CCC(N)=O)C(=O)N[C@@H](CC(=O)O)C(=O)N[C@H](C(=O)N[C@@H](CCSC)C(=O)N[C@@H](CO)C(=O)N[C@@H](CCCNC(=N)N)C(N)=O)[C@@H](C)CC)C(C)C)[C@@H](C)O` [npa0], under “Table 7”, the Hill coef. was 0.63 ± 0.09 and the Relative affinity worked out at 14 ± 5%. Moreover, the IC50 (Table 7, mean±SD of 2 or mean±SE of 3-6 experiments for analogues, mean±SE of 29 for hGRF(1-29)NH2) came out at 18.3 ± 5.9 nM.

Turning to `CC[C@H](C)[C@H](NC(=O)[C@H](C)NC(=O)[C@H](CC(=O)O)NC(=O)[C@@H](C)NC(=O)[C@@H](N)Cc1ccc(O)cc1)C(=O)N[C@@H](Cc1ccccc1)C(=O)N[C@H](C(=O)N[C@@H](CC(N)=O)C(=O)N[C@@H](CO)C(=O)N[C@H](Cc1ccc(O)cc1)C(=O)N[C@@H](CCCNC(=N)N)C(=O)N[C@@H](CCCCN)C(=O)N[C@H](C(=O)N[C@@H](CC(C)C)C(=O)NCC(=O)N[C@@H](CCC(N)=O)C(=O)N[C@@H](CC(C)C)C(=O)N[C@@H](CO)C(=O)N[C@@H](C)C(=O)N[C@@H](CCCNC(=N)N)C(=O)N[C@@H](CCCCN)C(=O)N[C@@H](CCCCN)C(=O)N[C@@H](CC(C)C)C(=O)N[C@@H](CCC(N)=O)C(=O)N[C@@H](CC(=O)O)C(=O)N[C@H](C(=O)N[C@@H](CCSC)C(=O)N[C@@H](CO)C(=O)N[C@@H](CCCNC(=N)N)C(N)=O)[C@@H](C)CC)C(C)C)[C@@H](C)O` [D-Ala^2, D-Tyr^10, Lys^22] (H-Y[dA]DAIFTNS[dY]RKVLGQLSARKKLQDIMSR-NH2), the IC50 (Table 11, mean±SD of 2 or mean±SE of 3 experiments for analogues, mean±SE of 11 for hGRF(1-29)NH2) is 0.49 ± 0.27 nM.

The values are drawn from US5854216A, “Marker for growth hormone-releasing factor receptors” (Universite de Montreal, priority 1996, dated 1998).
